Source: patent US20260285850A1, “SUBSTITUTED OXAZOLIDINONES AND IMIDAZOLINONES AS HERBICIDES” (FMC CORPORATION, priority 2023, published 2026)

How the values were obtained:
Assay type in all cases: in vivo
[1] = test system: ragweed (common ragweed, Ambrosia artemisiifolia); assay: Test A preemergence soil spray, visual injury rating 0-100; details: 10 days
Method in brief: (§1)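 Plants were grown in a loam soil-sand blend and treated with test chemical in a non-phytotoxic solvent mixture containing surfactant, either sprayed on soil preemergence or applied postemergence to 2-10 cm plants. After 10 days in a greenhouse, injury was scored visually against untreated controls, 0 meaning no effect and 100 complete control.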

[2] = test system: ryegrass, Italian (italian ryegrass, Lolium multiflorum); assay: as above; details: 10 days
Method in brief: as §1

[3] = test system: blackgrass (Alopecurus myosuroides); assay: as above; details: 10 days
Method in brief: as §1

[4] = test system: barnyardgrass (Echinochloa crus-galli); assay: as above; details: 10 days
Method in brief: as §1

[5] = test system: green foxtail (Setaria viridis); assay: as above; details: 10 days
Method in brief: as §1

[6] = test system: corn (Zea mays); assay: as above; details: 10 days
Method in brief: as §1

[7] = test system: wheat (Triticum aestivum); assay: as above; details: 10 days
Method in brief: as §1

[8] = test system: soybean (Glycine max); assay: as above; details: 10 days
Method in brief: as §1

[9] = test system: oat, wild (wild oat, Avena fatua); assay: as above; details: 10 days
Method in brief: as §1

[10] = test system: palmer (palmer amaranth, palmer pigweed, Amaranthus palmeri); assay: as above; details: 10 days
Method in brief: as §1

[11] = test system: kochia (Bassia scoparia); assay: as above; details: 10 days
Method in brief: as §1

[12] = test system: ragweed (common ragweed, Ambrosia artemisiifolia); assay: Test A postemergence application, visual injury rating 0-100; details: for Ragweed plant response rating (0 to 100 scale): Postemergence
Method in brief: as §1

[13] = test system: ryegrass, Italian (italian ryegrass, Lolium multiflorum); assay: as above; details: for Ryegrass, Italian plant response rating (0 to 100 scale): Postemergence
Method in brief: as §1

[14] = test system: galium (catchweed bedstraw, Galium aparine); assay: as above; details: for Galium plant response rating (0 to 100 scale): Postemergence
Method in brief: as §1

[15] = test system: blackgrass (Alopecurus myosuroides); assay: as above; details: for Blackgrass plant response rating (0 to 100 scale): Postemergence
Method in brief: as §1

[16] = test system: barnyardgrass (Echinochloa crus-galli); assay: as above; details: for Barnyardgrass plant response rating (0 to 100 scale): Postemergence
Method in brief: as §1

[17] = test system: green foxtail (Setaria viridis); assay: as above
Method in brief: as §1

[18] = test system: corn (Zea mays); assay: as above; details: for Corn plant response rating (0 to 100 scale): Postemergence
Method in brief: as §1

[19] = test system: wheat (Triticum aestivum); assay: as above; details: for Wheat plant response rating (0 to 100 scale): Postemergence
Method in brief: as §1

[20] = test system: soybean (Glycine max); assay: as above; details: for Soybean plant response rating (0 to 100 scale): Postemergence
Method in brief: as §1

[21] = test system: oat, wild (wild oat, Avena fatua); assay: as above; details: for Oat, Wild plant response rating (0 to 100 scale): Postemergence
Method in brief: as §1

[22] = test system: palmer (palmer amaranth, palmer pigweed, Amaranthus palmeri); assay: as above
Method in brief: as §1

[23] = test system: kochia (Bassia scoparia); assay: as above; details: for Kochia plant response rating (0 to 100 scale): Postemergence
Method in brief: as §1

[24] = test system: rice (Oryza sativa); assay: Test B flooded paddy test, visual plant response rating 0-100; details: 250 g ai/ha, Flood, applied to paddy water, evaluated after 13 days
Method in brief: (§2)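 Treatment occurs at the 2-leaf stage by adding compound to floodwater standing 3 cm above the soil, a level kept for the whole test. Plants stay in the greenhouse 13 days before visual comparison with controls.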

[25] = test system: ducksalad (Heteranthera limosa); assay: as above; details: 250 g ai/ha, Flood, applied to paddy water, evaluated after 13 days
Method in brief: as §2

[26] = test system: sedge, umbrella (small-flower umbrella sedge, Cyperus difformis); assay: as above; details: 250 g ai/ha, Flood, applied to paddy water, evaluated after 13 days
Method in brief: as §2

[27] = test system: barnyardgrass (Echinochloa crusgalli); assay: as above; details: 250 g ai/ha, Flood, applied to paddy water, evaluated after 13 days
Method in brief: as §2

[28] = test system: horseweed (Erigeron canadensis); assay: Test A postemergence application, visual injury rating 0-100; details: Postemergence
Method in brief: as §1

[29] = 62 g ai/ha, 0 = no effect, 100 = complete control
[30] = 62 g ai/ha, postemergence, 10 days, 0 = no effect, 100 = complete control
[31] = 16 g ai/ha, greenhouse 10 days, 0 no effect, 100 complete control
[32] = Postemergence, 16 g ai/ha, greenhouse 10 days, 0 no effect, 100 complete control
[33] = 31 g ai/ha, 0 = no effect, 100 = complete control
[34] = 125 g ai/ha, 0 = no effect, 100 = complete control
[35] = 31 g ai/ha, greenhouse 10 days, 0 no effect, 100 complete control
[36] = 125 g ai/ha, 10 days, 0 is no effect, 100 is complete control

COC(=O)C1=CCC(NC(=O)C2(C)CN(c3cc(F)c(F)c(F)c3)C(=O)O2)C1 (mixture of isomers) [Compound 163]
Ragweed plant response rating ([1]; 16 g ai/ha, 0 to 100 scale): 0 | Ragweed plant response rating (0-100) [1, 29]: 10 | Ryegrass, Italian plant response rating ([2]; 16 g ai/ha, 0 to 100 scale): 0 | Ryegrass, Italian plant response rating (0-100) [2, 29]: 80 | Blackgrass plant response rating ([3]; 16 g ai/ha, 0 to 100 scale): 0 | Blackgrass plant response rating (0-100) [3, 29]: 0 | Barnyardgrass plant response rating ([4]; 16 g ai/ha, 0 to 100 scale): 0 | Barnyardgrass plant response rating (0-100) [4, 29]: 20 | Foxtail, Green plant response rating ([5]; 16 g ai/ha, 0 to 100 scale): 0 | Foxtail, Green plant response rating (0-100) [5, 29]: 20 | Corn plant response rating ([6]; 16 g ai/ha, 0 to 100 scale): 0 | Corn plant response rating (0-100) [6, 29]: 70 | Wheat plant response rating ([7]; 16 g ai/ha, 0 to 100 scale): 20 | Wheat plant response rating (0-100) [7, 29]: 80 | Soybean plant response rating ([8]; 16 g ai/ha, 0 to 100 scale): 0 | Soybean plant response rating (0-100) [8, 29]: 0 | Oat, Wild plant response rating ([9]; 16 g ai/ha, 0 to 100 scale): 0 | Oat, Wild plant response rating (0-100) [9, 29]: 20 | Pigweed, Palmer plant response rating ([10]; 16 g ai/ha, 0 to 100 scale): 0 | Pigweed, Palmer plant response rating (0-100) [10, 29]: 0 | Kochia plant response rating ([11]; 16 g ai/ha, 0 to 100 scale): 0 | Kochia plant response rating (0-100) [11, 29]: 0 | Ragweed plant response rating (0-100) [12, 30]: 0 | Ragweed plant response rating (0 to 100 scale) [12, 31]: 0 | Ryegrass, Italian plant response rating (0-100) [13, 30]: 80 | Ryegrass, Italian plant response rating (0 to 100 scale) [13, 31]: 60 | Galium plant response rating (0-100) [14, 30]: 70 | Galium plant response rating (0 to 100 scale) [14, 31]: 40 | Blackgrass plant response rating (0-100) [15, 30]: 70 | Blackgrass plant response rating (0 to 100 scale) [15, 31]: 20 | Barnyardgrass plant response rating (0-100) [16, 30]: 100 | Barnyardgrass plant response rating (0 to 100 scale) [16, 31]: 70 | Foxtail, Green plant response rating (0-100) [17, 30]: 90 | Foxtail, Green plant response rating (0 to 100 scale) [17, 32]: 50 | Corn plant response rating (0-100) [18, 30]: 100 | Corn plant response rating (0 to 100 scale) [18, 31]: 90 | Wheat plant response rating (0-100) [19, 30]: 70 | Wheat plant response rating (0 to 100 scale) [19, 31]: 30 | Soybean plant response rating (0-100) [20, 30]: 70 | Soybean plant response rating (0 to 100 scale) [20, 31]: 50 | Oat, Wild plant response rating (0-100) [21, 30]: 90 | Oat, Wild plant response rating (0 to 100 scale) [21, 31]: 30 | Pigweed, Palmer plant response rating (0-100) [22, 30]: 80 | Pigweed, Palmer plant response rating (0 to 100 scale) [22, 32]: 10 | Kochia plant response rating (0-100) [23, 30]: 90 | Kochia plant response rating (0 to 100 scale) [23, 31]: 20 | Plant response rating, Rice (0 to 100 scale, 0 is no effect and 100 is complete control) [24]: 60 | Plant response rating, Ducksalad (0 to 100 scale, 0 is no effect and 100 is complete control) [25]: 85 | Plant response rating, Sedge, Umbrella (0 to 100 scale, 0 is no effect and 100 is complete control) [26]: 85 | Plant response rating, Barnyardgrass (0 to 100 scale, 0 is no effect and 100 is complete control) [27]: 55

CC1(C(=O)NC2CC=C(C(=O)O)C2)CN(c2cc(Cl)cc(Cl)c2)C(=O)O1 (centres unmarked) [Compound 72]
Ragweed plant response rating (0-100) [1, 33]: 0 | Ragweed plant response rating (0 to 100 scale) [1, 34]: 40 | Ryegrass, Italian plant response rating (0-100) [2, 33]: 40 | Ryegrass, Italian plant response rating (0 to 100 scale) [2, 34]: 80 | Blackgrass plant response rating (0-100) [3, 33]: 0 | Blackgrass plant response rating (0 to 100 scale) [3, 34]: 30 | Barnyardgrass plant response rating (0-100) [4, 33]: 60 | Barnyardgrass plant response rating (0 to 100 scale) [4, 34]: 90 | Corn plant response rating (0-100) [6, 33]: 0 | Corn plant response rating (0 to 100 scale) [6, 34]: 60 | Wheat plant response rating (0-100) [7, 33]: 40 | Wheat plant response rating (0 to 100 scale) [7, 34]: 80 | Soybean plant response rating (0-100) [8, 33]: 0 | Soybean plant response rating (0 to 100 scale) [8, 34]: 80 | Oat, Wild plant response rating (0-100) [9, 33]: 10 | Oat, Wild plant response rating (0 to 100 scale) [9, 34]: 40 | Amaranth, Palmer plant response rating (0-100) [10, 33]: 90 | Amaranth, Palmer plant response rating (0 to 100 scale) [10, 34]: 100 | Kochia plant response rating (0-100) [11, 33]: 80 | Kochia plant response rating (0 to 100 scale) [11, 34]: 90 | Ragweed plant response rating (0 to 100 scale) [12, 35]: 50 | Ragweed plant response rating (0 to 100 scale) [12, 36]: 70 | Ryegrass, Italian plant response rating (0 to 100 scale) [13, 35]: 70 | Ryegrass, Italian plant response rating (0 to 100 scale) [13, 36]: 70 | Galium plant response rating (0 to 100 scale) [14, 35]: 80 | Galium plant response rating (0 to 100 scale) [14, 36]: 80 | Blackgrass plant response rating (0 to 100 scale) [15, 35]: 90 | Blackgrass plant response rating (0 to 100 scale) [15, 36]: 90 | Barnyardgrass plant response rating (0 to 100 scale) [16, 35]: 90 | Barnyardgrass plant response rating (0 to 100 scale) [16, 36]: 90 | Corn plant response rating (0 to 100 scale) [18, 35]: 100 | Corn plant response rating (0 to 100 scale) [18, 36]: 100 | Wheat plant response rating (0 to 100 scale) [19, 35]: 80 | Wheat plant response rating (0 to 100 scale) [19, 36]: 90 | Soybean plant response rating (0 to 100 scale) [20, 35]: 80 | Soybean plant response rating (0 to 100 scale) [20, 36]: 90 | Horseweed plant response rating (0 to 100 scale) [28, 35]: 70 | Horseweed plant response rating (0 to 100 scale) [28, 36]: 80 | Oat, Wild plant response rating (0 to 100 scale) [21, 35]: 40 | Oat, Wild plant response rating (0 to 100 scale) [21, 36]: 60 | Amaranth, Palmer / Pigweed, Palmer plant response rating (0 to 100 scale) ([22]; Postemergence, 31 g ai/ha, greenhouse 10 days, 0 no effect, 100 complete control): 90 | Amaranth, Palmer / Pigweed, Palmer plant response rating (0 to 100 scale) ([22]; Postemergence, 125 g ai/ha, 10 days, 0 is no effect, 100 is complete control): 90 | Kochia plant response rating (0 to 100 scale) [23, 35]: 80 | Kochia plant response rating (0 to 100 scale) [23, 36]: 80 | Plant response rating, Rice (0 to 100 scale, 0 is no effect and 100 is complete control) [24]: 85 | Plant response rating, Ducksalad (0 to 100 scale, 0 is no effect and 100 is complete control) [25]: 75 | Plant response rating, Sedge, Umbrella (0 to 100 scale, 0 is no effect and 100 is complete control) [26]: 98 | Plant response rating, Barnyardgrass (0 to 100 scale, 0 is no effect and 100 is complete control) [27]: 55
